Experimental data reported in patent US8637493B2, “Methods for treating glioblastoma” (University of Massachusetts, priority 2009, dated 2014).
Values joined by “and” are separate entries in the source; they are usually repeats but may differ in a detail not shown here. Equal entries are not always repeated.

Columns and labels:
[1] = system: U87NS; assay: Neurosphere formation / recovery / secondary neurosphere assay, U87NS; type: cell-based, human
Experimental: (§1) The effect of chemotherapy on neurosphere formation was assayed in glioma neurosphere cultures. Cultures are treated with a single dose of the agent, e.g., TMZ and multiple doses of a GSI, e.g., DAPT to inhibit the Notch pathway. After the Treatment phase, the number of initial spheres (counted about 7 days after TMZ treatment) represents the number of proliferating CSC/progenitors (FIG. 1 for schematic). Recovery (counted 14 days after TMZ treatment) includes enlargement of the initial spheres and new spheres formed when CSC/progenitor cells quiescent as a result of chemotherapy resume cell proliferation. […] The cells used included U87NS, a neurosphere culture converted to neurosphere growth in defined medium from U87MG (an old Swedish line that is grown in conventional serum conditions); GS7-2, GS8-26 and GS6-22 primary neurosphere cultures that were obtained from grade IV GBM patient tumor samples and AS5-15, which was obtained from a grade III anaplastic astrocytoma.
(§2) To determine the effects of TMZ plus DAPT neurospheres, cells were plated as previously described (Mihaliak et al., Cancer Letts. 296, 168-177 (2010)). Immediately after plating, cells were treated with DMSO, DAPT-only, LY411,575 (LY)-only TMZ-only, TMZ+DAPT or TMZ+LY. The initial neurospheres were counted on day 7 for the converted cell lines and on day 10 for the slower growing primary lines. Neurosphere recovery was measured on day 14 or 20. The neurospheres were dissociated, re-plated and secondary neurosphere formation was measured on day 21 or 30.
(§3) Neurosphere cultures were dissociated to single cell suspensions by pH dissociation followed by filtration through 40 μm screens. For the neurosphere assay, 3,000 cells/ml of defined medium were seeded in 6-well plates. Immediately after plating, cells were treated with DMSO (Research Organics, Cleveland, Ohio) carrier control, TMZ-only, DAPT-only, or TMZ+DAPT. Additional DAPT was added on days 2 and 4. Neurospheres consisting of 10 or more cells were counted under a light microscope on day 7 for the converted cell lines. Primary lines have a slightly longer doubling time and were counted on day 10. After counting the neurospheres from the initial treatment, 2 ml of fresh defined medium was added to each well. DAPT was also added once more to the DAPT-only and TMZ+DAPT samples, and the cells were incubated for an additional 7 or 10 days. Neurospheres from the recovery period were counted on day 14 or day 20. To analyze secondary neurosphere formation, cells were collected, pelleted and dissociated to a single cell suspension by the pH method. Cells from each well were re-seeded into 6-well plates with 2 ml of defined medium. The number of secondary neurospheres formed by converted cell lines and primary cultures were counted on day 21 or day 30, respectively. All recovery assays were repeated with a minimum of 6 replicate sets of time points.
(§4) For the samples labeled “PRE-treat”, a single dose of DAPT was administered when the cells were plated, and then TMZ was added to the medium 24 hours later. For the “CO-treat” samples, single doses of TMZ and DART were added simultaneously when the cells were plated. Finally, samples labeled “POST-treat” were treated with TMZ, and then DAPT was added 24 hours later.

[2] = system: U373NS; assay: Neurosphere formation / recovery / secondary neurosphere assay, U373NS; type: cell-based, human
Experimental: as §1, §2, §3

[3] = system: GS7-2; assay: Neurosphere formation / recovery / secondary neurosphere assay, GS7-2; type: cell-based, human
Experimental: as §1, §2, §3, §4

[4] = system: U87NS cells; assay: Ex vivo treated cells, subcutaneous xenograft tumor initiation, U87NS; type: in vivo, nude mice
Experimental: U87NS cells were treated in vitro as follows. The cells were dissociated and 2.5×10^4 cells/ml were plated defined media and treated with DMSO, TMZ-only (200 μM), DAPT-only (1 μM or 5 μM), or TMZ+DAPT as described for recovery assays (FIG. 8A and Table 1). After 7 days, 2.5×10^5 live cells were counted using trypan blue and re-suspended in 100 μl PBS and subcutaneously injected into nude mice. Mice were monitored for tumor formation for up to 120 days post-injection and euthanized when tumors reached volumes of 1.5 to 2 cm3. Tumor initiation was observed when a palpable tumor formed. […] Impressively, none of the mice injected with TMZ+DAPT treated cells (0/7 mice) formed tumors, even after 90 days. When a higher number of live U87NS cells (3×10^6) were injected, we saw a similar trend (Table 1). Mice with 3×10^6 cells for U87NS DMSO (2/2 mice) and DAPT-only (2/2 mice) xenografts developed palpable tumors at 3 and 4 days, respectively, and 3/4 mice formed tumors in TMZ-only treated cells with an average latency of 25 days. With this higher number of cells injected, U87NS TMZ+DAPT xenografts formed tumors in only 1/4 mice with a longer latency of 43 days.
(§5) U87NS and U373NS neurospheres were dissociated and 2.5×10^4 cells/ml were plated in defined media and treated with DMSO, TMZ-only (200 μM), DAPT-only (1 μM or 5 μM), or TMZ+DAPT as described for recovery assays. After 7 days, 3×10^6 live cells were counted using trypan blue and re-suspended in 100 μl PBS. Cells were subcutaneously injected into the flanks of nude mice. Mice were monitored for tumor formation for up to 120 days post-injection and euthanized when tumors reached volumes of 1.5 to 2 cm^3.

[5] = system: U373NS; assay: Ex vivo treated cells, subcutaneous xenograft tumor initiation, U373NS; type: in vivo, nude mice; settings: 3 × 10^6 live cells injected, TMZ 200 μM, DAPT 5 μM
Experimental: as §5
as §5, with “U373NS” for “U87NS and U373NS”, “(FIG. 8B and Table 1).” for “as described for recovery assays.”, “cm^3. The control DMSO cells formed palpable tumors in an average of 15 days for 7/7 xenografts, and DAPT-only treated cells formed tumors in an average of 16 days for 7/7 xenografts. […] Palpable tumors formed for 6/7 TMZ-treated U373NS xenografts in an average of 43 days. […] Only 1/7 mice formed a tumor in the TMZ+DAPT U373NS xenografts with an extended latency of 96 days.” for “cm^3.”

[6] = 10 μM DAPT alone, counted day 7
[7] = low concentrations (1-5 μM) DAPT-only, day 7
[8] = 2.5 × 10^5 live cells injected, TMZ 200 μM, DAPT 1 μM
[9] = secondary neurospheres divided by recovery neurospheres

## C[C@H](NC(=O)Cc1cc(F)cc(F)c1)C(=O)N[C@H](C(=O)OC(C)(C)C)c1ccccc1 [DAPT, N-[N-(3,5-difluorophenacetyl)-L-alanyl]-(S)-phenylglycine t-butyl ester]
[1]; [6]
  decrease of neurosphere formation compared to DMSO controls: 41%
[1]; [7]
  inhibition of neurosphere formation: minimal inhibition
[2]; [6]
  decrease of neurosphere formation compared to DMSO controls: 39%
[2]; [7]
  inhibition of neurosphere formation: minimal inhibition
[3]; 10 μM DAPT alone, counted day 10
  decrease of neurosphere formation compared to DMSO controls: 49%
[3]; low concentrations (1-5 μM) DAPT-only, day 10
  inhibition of neurosphere formation: minimal inhibition
[4]; [8]
  Ex vivo Treated Xenograft Average Latency: 14 days
  Ex vivo Treated Xenograft Incidence: 7/7
[4]; 3 × 10^6 live cells injected
  Ex vivo Treated Xenograft Average Latency: 4 days
  Ex vivo Treated Xenograft Incidence: 2/2
[5]
  Ex vivo Treated Xenograft Average Latency: 16 days
  Ex vivo Treated Xenograft Incidence: 7/7

## Cn1nnc2c(C(N)=O)ncn2c1=O [TMZ, temozolomide]
[1]; TMZ-only treatment, P<0.001
  secondary neurosphere formation relative to DAPT POST-treatment: 5.7 fold
[1]; day 14 relative to day 7, TMZ 200 μM, DAPT 1 μM
  recovery: increase in the number of neurospheres: 2 fold
[1]; day 21, P<0.0001
  secondary neurosphere formation, TMZ-only treated culture relative to TMZ+DAPT treated culture: 36 fold
[1]; [9]
  average number of cells per neurosphere capable of self-renewal: 8 cells per neurosphere
[2]; day 14 relative to day 7, TMZ 200 μM, DAPT 5 μM
  recovery: increase in the number of neurospheres: 1.5 fold
[2]; day 21, P<0.001
  secondary neurosphere formation, TMZ-only treated culture relative to TMZ+DAPT treated culture: 23 fold
[2]; [9]
  average number of cells per neurosphere capable of self-renewal: 3 cells per neurosphere
[3]; TMZ-only treatment, P<0.0001
  secondary neurosphere formation relative to DAPT POST-treatment: 85.7 fold
[3]; day 20 relative to day 10, DAPT 1 μM
  recovery: increase in the number of neurospheres: 1.8 fold
[3]; day 30, P<0.001
  secondary neurosphere formation, TMZ-only treated culture relative to TMZ+DAPT treated culture: 45 fold
[3]; [9]
  average number of cells per neurosphere capable of self-renewal: 38 cells per neurosphere
[4]; [8]
  Ex vivo Treated Xenograft Average Latency: 32 days
  Ex vivo Treated Xenograft Incidence: 6/7
[4]; 3 × 10^6 live cells injected
  Ex vivo Treated Xenograft Average Latency: 25 days
  Ex vivo Treated Xenograft Incidence: 3/4
[5]
  Ex vivo Treated Xenograft Average Latency: 43 days and 45 days
  Ex vivo Treated Xenograft Incidence: 6/7
